Measurements taken from article PMC3767473 (Angewandte Chemie (International ed. in English), 2013).
Numbered stars: 1 amine (or outer) side, 2 acyl side, 3 side chain; on linkers, the order of the positions; unused ones are H or OH. Bridge positions count the residues as written; N and C are the ends. Square brackets hold non-standard residues; d marks the D form. Side chains are listed from the residue outwards. Peptide text beside a SMILES is read from it. * marks the point of attachment. X1 = O=C([C@H](Cc1ccc(-n2nnc3c2-c2ccccc2CN([*:3])c2ccccc2-3)cc1)N[*:1])[*:2]; X2 = Cc1c(CC(=O)*)c(=O)oc2cc(N)ccc12; βAla = NCCC(=O)O

Experiments:
[1] = tested on: porcine pancreatic trypsin; test: Binding to commercial porcine pancreatic trypsin; settings: Fig. S8
[2] = cited from earlier work

Compound | binding to porcine pancreatic trypsin ([1]; commercial trypsin) | effect of the fluorophore in loop 2 on biological activity ([1]; trypsin binding) | oral uterotonic activity [2]
CC[C@H](C)[C@@H]1NC(=O)[C@@H]2CSSC[C@@H]3NC(=O)[C@H](C(C)C)NC(=O)CNC(=O)CNC(=O)[C@H](CC(=O)O)NC(=O)[C@H](CO)NC(=O)CNC(=O)[C@H](CO)NC(=O)CNC(=O)[C@@H]4CSSC[C@H](NC(=O)[C@H](CC(=O)O)NC(=O)[C@H](CO)NC(=O)[C@H](Cc5ccc(-n6nnc7c6-c6ccccc6CN(C(=O)CCNC(=O)Cc6c(C)c8ccc(N)cc8oc6=O)c6ccccc6-7)cc5)NC(=O)[C@H](CCCNC(=N)N)NC(=O)[C@H](CCCNC(=N)N)NC(=O)[C@H](CSSC[C@H](NC1=O)C(=O)N[C@@H](CCCNC(=N)N)C(=O)NCC(=O)N[C@@H](CC(N)=O)C(=O)NCC(=O)N[C@@H](Cc1ccc(O)cc1)C(=O)N4)NC(=O)[C@H](CCCNC(=N)N)NC(=O)[C@H](CCC(N)=O)NC(=O)[C@H](CC(C)C)NC(=O)[C@H]([C@@H](C)CC)NC(=O)[C@H](CCCCN)NC(=O)[C@@H]1CCCN1C3=O)C(=O)N1CCC[C@H]1C(=O)NCC(=O)N[C@@H](C)C(=O)N2 [AMCA-labeled MCoTI-AziF] (cyclo(ACICRGNGYCGSGSDGGVCPKILQRCRR[X1]([βAla-X2])SDCPG); disulfide 2-19, 4-26, 10-32) | able to bind commercial porcine pancreatic trypsin efficiently | did not have a detrimental effect on its biological activity | –
kalata B1: the first cyclotide to be discovered (GLPVCGETCVGGTCNTPGCTCSWPVCTRN; Kalata-B1; UniProt P56254 89-117, looked up) | – | – | orally effective uterotonic
